Assay results as given in US9529005B2, “Modulating bacterial MAM polypeptides in pathogenic disease” (priority 2011, dated 2016).
In brackets after ≈: the same amount, converted by molar mass. Read-outs that look alike come from different tables or passages of the source.

What was measured:
Test in all cases: Antimicrobial susceptibility testing (MIC), BD Phoenix Automated Microbiology System; as to interpretation of the result: key: R, resistant; I, intermediate; S, susceptible; R*: *As a rule, when ESBL is detected, an interpretation of susceptible or intermediate for penicillins, cephalosporins and aztreonam is reported as resistant
Type in all cases: cell-based
[1] = system: Acinetobacter baumannii; details: for MIC: Acinetobacter baumannii; as to interpretation of the result: key: R, resistant; I, intermediate; S, susceptible; R*: *As a rule, when ESBL is detected, an interpretation of susceptible or intermediate for penicillins, cephalosporins and aztreonam is reported as resistant
Excerpt: (§1) The inventors performed antimicrobial susceptibility testing (AST) by determining the minimal inhibiting concentration (MIC) of a panel of antimicrobials on all twenty bacterial isolates using the BD Phoenix Automated Microbiology System (Table 3). Antimicrobial panels included several drugs from each of the four most commonly used classes of antimicrobials, aminoglycosides, β-lactams, carbapenems and fluoroquinolones. The panels also included antimicrobials from other classes, such as trimethoprim/sulfamethoxazole, but resistance to these was not considered in the classification of isolates as multidrug-resistant.

[2] = system: Escherichia coli; details: for MIC: Escherichia coli; as to interpretation of the result: key: R, resistant; I, intermediate; S, susceptible; R*: *As a rule, when ESBL is detected, an interpretation of susceptible or intermediate for penicillins, cephalosporins and aztreonam is reported as resistant
Excerpt: as §1

[3] = system: Klebsiella ssp.; details: for MIC: Klebsiella; as to interpretation of the result: key: R, resistant; I, intermediate; S, susceptible; R*: *As a rule, when ESBL is detected, an interpretation of susceptible or intermediate for penicillins, cephalosporins and aztreonam is reported as resistant
Excerpt: as §1

[4] = system: Pseudomonas aeruginosa; details: for MIC: Pseudomonas aeruginosa
Excerpt: as §1

[5] = Acinetobacter baumannii isolate 1
[6] = Acinetobacter baumannii isolate 2
[7] = Acinetobacter baumannii isolate 3
[8] = Acinetobacter baumannii isolate 4
[9] = Acinetobacter baumannii isolate 5
[10] = read-out: minimal inhibiting concentration, Escherichia coli isolate 1
[11] = read-out: minimal inhibiting concentration, Escherichia coli isolate 2
[12] = read-out: minimal inhibiting concentration, Escherichia coli isolate 3
[13] = read-out: minimal inhibiting concentration, Escherichia coli isolate 4
[14] = read-out: minimal inhibiting concentration, Escherichia coli isolate 5
[15] = read-out: minimal inhibiting concentration, Klebsiella ssp. isolate 1
[16] = read-out: minimal inhibiting concentration, Klebsiella ssp. isolate 2
[17] = read-out: minimal inhibiting concentration, Klebsiella ssp. isolate 3
[18] = read-out: minimal inhibiting concentration, Klebsiella ssp. isolate 4
[19] = read-out: minimal inhibiting concentration, Klebsiella ssp. isolate 5
[20] = read-out: minimal inhibiting concentration, Acinetobacter baumannii isolate 1
[21] = read-out: minimal inhibiting concentration, Acinetobacter baumannii isolate 2
[22] = read-out: minimal inhibiting concentration, Acinetobacter baumannii isolate 3
[23] = read-out: minimal inhibiting concentration, Acinetobacter baumannii isolate 4
[24] = read-out: minimal inhibiting concentration, Acinetobacter baumannii isolate 5

SMILES | interpretation of the result [1, 5] | interpretation of the result [1, 6] | interpretation of the result [1, 7] | interpretation of the result [1, 8] | interpretation of the result [1, 9] | interpretation of the result ([2]; Escherichia coli isolate 1) | interpretation of the result ([2]; Escherichia coli isolate 2) | interpretation of the result ([2]; Escherichia coli isolate 3) | interpretation of the result ([2]; Escherichia coli isolate 4) | interpretation of the result ([3]; Klebsiella ssp. isolate 1) | interpretation of the result ([3]; Klebsiella ssp. isolate 2) | interpretation of the result ([3]; Klebsiella ssp. isolate 3) | interpretation of the result ([3]; Klebsiella ssp. isolate 4) | interpretation of the result ([3]; Klebsiella ssp. isolate 5) | MIC [2, 10] | MIC [2, 11] | MIC [2, 12] | MIC [2, 13] | MIC [2, 14] | MIC [3, 15] | also measured
C[C@H]1[C@H](NC(=O)/C(=N\OC(C)(C)C(=O)O)c2csc(N)n2)C(=O)N1S(=O)(=O)O [Az., Aztreonam] | R | R | R | R | R | R | R | R | R | R | R | R | R | R |  |  |  |  |  |  | MIC ([1]; Acinetobacter baumannii isolate 1, read-out: minimal inhibiting concentration): > 16 µg/mL; MIC ([1]; Acinetobacter baumannii isolate 2, read-out: minimal inhibiting concentration): > 16 µg/mL; MIC ([1]; Acinetobacter baumannii isolate 3, read-out: minimal inhibiting concentration): > 16 µg/mL; MIC ([1]; Acinetobacter baumannii isolate 4, read-out: minimal inhibiting concentration): > 16 µg/mL; MIC ([1]; Acinetobacter baumannii isolate 5, read-out: minimal inhibiting concentration): > 16 µg/mL; MIC ([2]; Escherichia coli isolate 1, read-out: minimal inhibiting concentration): > 16 µg/mL; MIC ([2]; Escherichia coli isolate 2, read-out: minimal inhibiting concentration): > 16 µg/mL; MIC ([2]; Escherichia coli isolate 3, read-out: minimal inhibiting concentration): > 16 µg/mL; MIC ([2]; Escherichia coli isolate 4, read-out: minimal inhibiting concentration): > 16 µg/mL; MIC ([2]; Escherichia coli isolate 5, read-out: minimal inhibiting concentration): 8 µg/mL (≈ 18.4 µM); MIC ([3]; Klebsiella ssp. isolate 1, read-out: minimal inhibiting concentration): > 16 µg/mL; MIC ([3]; Klebsiella ssp. isolate 2, read-out: minimal inhibiting concentration): > 16 µg/mL; MIC ([3]; Klebsiella ssp. isolate 3, read-out: minimal inhibiting concentration): > 16 µg/mL; MIC ([3]; Klebsiella ssp. isolate 4, read-out: minimal inhibiting concentration): > 16 µg/mL; MIC ([3]; Klebsiella ssp. isolate 5, read-out: minimal inhibiting concentration): > 16 µg/mL
CO/N=C(\C(=O)N[C@@H]1C(=O)N2C(C(=O)[O-])=C(C[N+]3(C)CCCC3)CS[C@H]12)c1csc(N)n1 [Cefe., Cefepime] |  |  |  |  |  | R | R | R | R | R | R |  | R |  | > 16 µg/mL | > 16 µg/mL | > 16 µg/mL | > 16 µg/mL | 8 µg/mL (≈ 16.6 µM) | > 16 µg/mL | MIC [3, 16]: > 16 µg/mL; MIC [3, 17]: 2 µg/mL (≈ 4.16 µM); MIC [3, 18]: > 16 µg/mL; MIC [3, 19]: 2 µg/mL (≈ 4.16 µM)
CO/N=C(\C(=O)N[C@@H]1C(=O)N2C(C(=O)O)=C(COC(C)=O)CS[C@H]12)c1csc(N)n1 [Cefo., Cefotaxime] | R | R | R | R | R |  |  |  |  | R | R | S | R | R |  |  |  |  |  | > 32 µg/mL | MIC [1, 20]: > 32 µg/mL; MIC [1, 21]: > 32 µg/mL; MIC [1, 22]: > 32 µg/mL; MIC [1, 23]: > 32 µg/mL; MIC [1, 24]: > 32 µg/mL; MIC [3, 16]: > 32 µg/mL; MIC [3, 17]: ≤ 4 µg/mL; MIC [3, 18]: > 32 µg/mL; MIC [3, 19]: > 32 µg/mL
CO/N=C(\C(=O)N[C@@H]1C(=O)N2C(C(=O)O)=C(COC(N)=O)CS[C@H]12)c1ccco1 [Cefu., Cefuroxime] | R | R | R | R | R | R | R | R | R |  |  |  |  |  | > 16 µg/mL | > 16 µg/mL | > 16 µg/mL | > 16 µg/mL | > 16 µg/mL |  | MIC [1, 20]: > 16 µg/mL; MIC [1, 21]: > 16 µg/mL; MIC [1, 22]: > 16 µg/mL; MIC [1, 23]: > 16 µg/mL; MIC [1, 24]: > 16 µg/mL; interpretation of the result ([2]; Escherichia coli isolate 5): R; interpretation of the result ([4]; Pseudomonas aeruginosa isolate 1): R; interpretation of the result ([4]; Pseudomonas aeruginosa isolate 2): R; interpretation of the result ([4]; Pseudomonas aeruginosa isolate 3): R; interpretation of the result ([4]; Pseudomonas aeruginosa isolate 4): R; interpretation of the result ([4]; Pseudomonas aeruginosa isolate 5): R; MIC ([4]; read-out: minimal inhibiting concentration, Pseudomonas aeruginosa isolate 1): > 16 µg/mL; MIC ([4]; read-out: minimal inhibiting concentration, Pseudomonas aeruginosa isolate 2): > 16 µg/mL; MIC ([4]; read-out: minimal inhibiting concentration, Pseudomonas aeruginosa isolate 3): > 16 µg/mL; MIC ([4]; read-out: minimal inhibiting concentration, Pseudomonas aeruginosa isolate 4): > 16 µg/mL; MIC ([4]; read-out: minimal inhibiting concentration, Pseudomonas aeruginosa isolate 5): > 16 µg/mL
CC(=O)OCC1=C(C(=O)O)N2C(=O)[C@@H](NC(=O)Cc3cccs3)[C@H]2SC1 [Ceph., Cephalotin] | R | R | R | R | R |  |  |  |  |  |  |  |  |  |  |  |  |  |  |  | minimal inhibiting concentration [1, 5]: > 16 µg/mL; minimal inhibiting concentration [1, 6]: > 16 µg/mL; minimal inhibiting concentration [1, 7]: > 16 µg/mL; minimal inhibiting concentration [1, 8]: > 16 µg/mL; minimal inhibiting concentration [1, 9]: > 16 µg/mL
